Measured values published in US7026313B2, “2-thia-1,6,8-triaza-naphthalene-2,2-dioxides are kinase inhibitors” (Warner-Lambert Company, priority 2002, dated 2006).

Experiments:
[1] = target: cdk1/cyclin B (Homo sapiens, UniProt P06493); assay: Assay for inhibition of cdk1 (cdk1/cyclin B), 32P filter plate; format: biochemical; details: retinoblastoma protein substrate, read-out: CYCK1B IC50
Protocol: (§1) Assay for Inhibition of cdk1 and cdk2
(§2) Cdk1 and cdk2 enzyme assays for IC50 determinations and kinetic evaluation were performed as follows. 96-well filter plates (Millipore MADVN6550) were used. The total volume of each well in the assay was 0.1 mL in Buffer A (20 mM TRIS (pH 7.4), 50 mM NaCl, 1 mM dithiothreitol, 10 mM MgCl2), to which was added […] containing 0.25 μCi [^32P]ATP, 20 ng enzyme (cdk2/cyclin E, cdk2/cyclin A, or cdk1/cyclin B), 1 μg retinoblastoma protein, and appropriate dilutions in Buffer A of the particular test compound. Buffer A alone without added test compound was employed as a control for no inhibition. Buffer A containing excess EDTA was used to determine the level of background ^32P in the absence of enzyme activity. All components except the ATP were added to the wells, and the plate was placed on a plate mixer for 2 minutes. The reaction was initiated by addition of [^32P]ATP, and the plate was incubated at 25° C. for 15 minutes. The reaction was terminated by addition of 0.1 mL 20% TCA. The plate was kept at 4° C. for at least 1 hour to allow the substrate to precipitate. The wells were then washed five times with 0.2 mL 10% TCA, and ^32P incorporation was determined with a beta plate counter (Wallac Inc., Gaithersburg, Md.). The IC50 of the test compound was determined using the median effect method (Chou, T-C and Talalay, P. Applications of the median effect principle for the assessment of low-dose risk of carcinogens and for the quantitation of synergism and antagonism of chemotherapeutic agents. In: New Avenues in Developmental Cancer Chemotherapy (Eds. Harrap, K. T. and Connors, T. A.), pp. 37–64. Academic Press, New York, 1987).

[2] = target: cdk2/cyclin A (Homo sapiens, UniProt P24941); assay: Assay for inhibition of cdk2 (cdk2/cyclin A), 32P filter plate; format: biochemical; details: retinoblastoma protein substrate, read-out: CYCK2A IC50
Protocol: as §1, §2

[3] = target: cdk2/cyclin E (Homo sapiens, UniProt P24941); assay: Assay for inhibition of cdk2 (cdk2/cyclin E), 32P filter plate; format: biochemical; details: retinoblastoma protein substrate, read-out: CYCK2E IC50
Protocol: as §1, §2

[4] = target: cdk4/Cyclin D (Homo sapiens, UniProt P11802); assay: Assay for inhibition of cdk4/Cyclin D, 32P filter plate; format: biochemical; details: for IC50: cdk4, 25 μM ATP, retinoblastoma protein substrate, read-out: CYCK4 IC50
Chain of cdk4/Cyclin D (P11802 whole entry, species assumed): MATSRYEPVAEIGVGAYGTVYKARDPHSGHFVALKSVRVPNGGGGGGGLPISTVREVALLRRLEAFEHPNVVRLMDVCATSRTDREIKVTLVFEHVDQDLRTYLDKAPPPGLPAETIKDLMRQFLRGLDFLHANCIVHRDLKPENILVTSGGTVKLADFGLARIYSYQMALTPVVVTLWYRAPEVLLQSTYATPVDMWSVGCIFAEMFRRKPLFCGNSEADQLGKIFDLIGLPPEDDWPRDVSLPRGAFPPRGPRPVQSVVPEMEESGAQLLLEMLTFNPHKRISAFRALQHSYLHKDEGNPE
Chain of cdk4/Cyclin D (P24385 whole entry partner, species assumed): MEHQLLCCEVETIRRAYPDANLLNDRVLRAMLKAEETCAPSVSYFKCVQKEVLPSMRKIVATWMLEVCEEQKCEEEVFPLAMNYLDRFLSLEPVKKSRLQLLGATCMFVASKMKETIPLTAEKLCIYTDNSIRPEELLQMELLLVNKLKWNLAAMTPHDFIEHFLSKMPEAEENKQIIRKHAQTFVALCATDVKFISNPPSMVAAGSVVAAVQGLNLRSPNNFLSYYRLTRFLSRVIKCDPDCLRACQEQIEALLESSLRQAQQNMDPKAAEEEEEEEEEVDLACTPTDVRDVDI
Protocol: Assay for Inhibition of cdk4/Cyclin D
The cdk4 enzyme assay for IC50 determination and kinetic evaluation was performed as follows: 96-well filter plates (Millipore MADVN6550) were used. The total volume was 0.1 mL containing a final concentration of buffer A (20 mM TRIS (tris[hydroxymethyl]aminomethane) (pH 7.4), 50 mM NaCl, 1 mM dithiothreitol, 10 mM MgCl2), 25 μM ATP containing 0.25 μCi [^32P]ATP, 20 ng Cdk4, 1 μg retinoblastoma protein, and the test compound at appropriate dilutions in buffer A. Buffer A alone without added test compound was employed as a control for no inhibition. Buffer A containing excess EDTA was used to determine the level of background ^32P in the absence of enzyme activity. All components except the ATP were added to the wells, and the plate was placed on a plate mixer for 2 minutes. The reaction was started by adding [^32P]ATP, and the plate was incubated at 25° C. for 15 minutes. The reaction was terminated by addition of 0.1 mL 20% trichloroacetic acid (TCA). The plate was kept at 4° C. for at least 1 hour to allow the substrate to precipitate. The wells were then washed five times with 0.2 mL 10% TCA, and ^32P incorporation was determined with a beta plate counter (Wallac Inc., Gaithersburg, Md.).

[5] = target: T1, human FGF1(flg) receptor tyrosine kinase (Homo sapiens, UniProt P11362); assay: FGF receptor (FGFr) tyrosine kinase assay; format: biochemical; details: FGFr enzyme lysate, Poly (4:1) glutamate-tyrosine substrate
T1 construct: amplify a fragment of DNA that codes for the intracellular tyrosine kinase domain; made in house; host or cells: SF9 insect cells (baculovirus); crude cell lysate used
T1 sequence (P11362 478-767 limits assumed): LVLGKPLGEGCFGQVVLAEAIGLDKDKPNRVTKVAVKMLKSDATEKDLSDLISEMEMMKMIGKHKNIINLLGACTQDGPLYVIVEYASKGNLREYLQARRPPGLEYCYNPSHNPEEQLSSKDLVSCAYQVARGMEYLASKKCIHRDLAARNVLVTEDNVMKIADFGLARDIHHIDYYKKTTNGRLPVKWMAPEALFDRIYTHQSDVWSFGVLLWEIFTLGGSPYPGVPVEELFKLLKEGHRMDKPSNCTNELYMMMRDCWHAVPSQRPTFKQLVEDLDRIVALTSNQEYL
Source text: (§3) For PDGF receptor (PDGFr) and FGF receptor (FGFr) tyrosine kinase assays, full-length cDNAs for the mouse PDGF-β and human FGF1(flg) receptor tyrosine kinases were obtained from J. Escobedo and prepared as described previously (Escobedo et al., J. Biol. Chem., 1988;262:1482–1487). PCR primers were designed to amplify a fragment of DNA that codes for the intracellular tyrosine kinase domain. The fragment was inserted into a baculovirus vector, cotransfected with AcMNPV DNA, and the recombinant virus was isolated. SF9 insect cells are infected with the virus to overexpress the protein, and the cell lysate was used for the assay.
(§4) PDGFr and FGFr enzyme assays were performed in 96-well plates (100 μL/incubation/well), and conditions were optimized to measure the incorporation of ^32P from [γ^32P]ATP into a glutamate-tyrosine co-polymer substrate. Briefly, to each well was added 82.5 μL incubation buffer containing 25 mM Hepes (pH 7.0), 150 mM NaCl, 0.1% Triton X-100, 0.2 mM PMSF, 0.2 mM Na3VO4, 10 mM MnCl2, and 750 μg/mL Poly (4:1) glutamate-tyrosine followed by 2.5 μL inhibitor and 5 μL enzyme lysate (7.5 μg/μL FGFr or 6.0 μg/μL PDGFr) to initiate the reaction. Following a 10-minute incubation at 25° C., […] [γ^32P]ATP (0.4 μCi plus 50 μM ATP) was added to each well, and samples were incubated for an additional 10 minutes at 25° C. The reaction was terminated by the addition of 100 μL 30% trichloroacetic acid (TCA) containing 20 mM sodium pyrophosphate and precipitation of material onto glass fiber mats (Wallac). Filters were washed three times with 15% TCA containing 100 mM sodium pyrophosphate, and the radioactivity retained on the filters was counted in a Wallac 1250 Betaplate reader. Nonspecific activity was defined as radioactivity retained on the filters following incubation of samples with buffer alone (no enzyme). Specific enzymatic activity (enzyme plus buffer) was defined as total activity minus nonspecific activity. The concentration of a compound that inhibited specific activity by 50% (IC50) was determined based on the inhibition curve.

[6] = target: T2, mouse PDGF-β receptor tyrosine kinase (Mus musculus, UniProt P05622); assay: PDGF receptor (PDGFr) tyrosine kinase assay; format: biochemical; details: PDGFr enzyme lysate, Poly (4:1) glutamate-tyrosine substrate
T2 construct: amplify a fragment of DNA that codes for the intracellular tyrosine kinase domain; made in house; host or cells: SF9 insect cells (baculovirus); crude cell lysate used
T2 sequence (P05622 599-961 limits assumed): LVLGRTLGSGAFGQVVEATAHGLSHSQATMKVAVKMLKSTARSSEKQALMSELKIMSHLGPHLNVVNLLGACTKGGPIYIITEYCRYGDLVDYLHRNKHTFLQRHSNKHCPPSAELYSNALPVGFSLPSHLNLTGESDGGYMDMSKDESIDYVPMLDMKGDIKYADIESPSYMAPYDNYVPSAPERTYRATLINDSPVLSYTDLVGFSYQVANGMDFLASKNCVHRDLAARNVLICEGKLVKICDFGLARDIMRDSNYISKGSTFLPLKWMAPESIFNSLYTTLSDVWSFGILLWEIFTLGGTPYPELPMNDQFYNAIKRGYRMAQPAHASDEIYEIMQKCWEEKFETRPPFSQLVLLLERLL
Source text: as §3, §4

[7] = system: neointima formation; details: intraluminal exposure of a denuded rat carotid artery; cited from earlier work
[8] = system: herpes simplex virus (HSV); details: related art (Schang et al.); cited from earlier work

Chain of cdk1/cyclin B (P06493 whole entry, species assumed): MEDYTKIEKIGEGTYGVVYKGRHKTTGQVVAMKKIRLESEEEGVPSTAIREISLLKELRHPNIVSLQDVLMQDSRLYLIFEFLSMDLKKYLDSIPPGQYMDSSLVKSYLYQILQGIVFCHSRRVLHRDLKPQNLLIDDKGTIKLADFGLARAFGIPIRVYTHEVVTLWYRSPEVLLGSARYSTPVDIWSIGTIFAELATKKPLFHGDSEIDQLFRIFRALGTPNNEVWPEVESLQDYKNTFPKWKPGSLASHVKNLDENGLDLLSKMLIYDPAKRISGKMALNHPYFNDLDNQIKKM
Chain of cdk1/cyclin B (P14635 whole entry partner, species assumed): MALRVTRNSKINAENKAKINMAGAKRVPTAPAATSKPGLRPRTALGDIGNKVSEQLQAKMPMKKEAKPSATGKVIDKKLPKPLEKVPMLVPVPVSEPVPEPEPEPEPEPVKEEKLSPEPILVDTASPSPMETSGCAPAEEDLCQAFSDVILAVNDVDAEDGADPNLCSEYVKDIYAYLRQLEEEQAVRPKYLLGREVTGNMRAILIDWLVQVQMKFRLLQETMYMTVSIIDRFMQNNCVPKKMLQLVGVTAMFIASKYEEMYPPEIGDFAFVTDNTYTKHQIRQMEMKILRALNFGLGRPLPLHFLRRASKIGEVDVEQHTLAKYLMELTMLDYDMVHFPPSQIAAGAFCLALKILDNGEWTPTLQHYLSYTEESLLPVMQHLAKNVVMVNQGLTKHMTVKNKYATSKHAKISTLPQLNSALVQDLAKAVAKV

## CC1=Cc2cnc(Nc3ccc(N4CCNCC4)cc3)nc2N(C2CCCC2)S1(=O)=O [Compound 10, (1-Cyclopentyl-3-methyl-2,2-dioxo-1,2-dihydro-2l^6-thia-1,6,8-triaza-naphthalen-7-yl)-(4-piperazin-1-yl-phenyl)-amine]
[1]
  IC50: 36000 nM
[2]
  IC50: 5450 nM
[3]
  IC50: 26000 nM
[4]
  IC50: 93 nM
[5]
  IC50: 575 nM
[6]
  IC50: 290 nM

## CC1(C)CN(c2ccc(Nc3ncc4c(n3)N(C3CCCC3)S(=O)(=O)C=C4)cc2)CCN1 [Compound 6, (1-Cyclopentyl-2,2-dioxo-1,2-dihydro-2l^6-thia-1,6,8-triaza-naphthalen-7-yl)-[4-(3,3-dimethyl-piperazin-1-yl)-phenyl]-amine]
[1]
  IC50: 3600 nM
[2]
  IC50: 294 nM
[3]
  IC50: 600 nM
[4]
  IC50: 1.3 nM

## COc1ccc(CNc2nc(N(CCO)CCO)nc3c2ncn3C(C)C)cc1 [CVT-313]
[7]
  inhibition of neointima formation: greater than 80%

## CC[C@H](CO)Nc1nc(NCc2ccccc2)c2ncn(C(C)C)c2n1 [roscovitine]
[8]
  HSV replication: inhibited

## CCC1=Cc2cnc(Nc3ccc(N4CCNCC4)cc3)nc2N(C2CCCC2)S1(=O)=O [Compound 14, (1-Cyclopentyl-3-ethyl-2,2-dioxo-1,2-dihydro-2l^6-thia-1,6,8-triaza-naphthalen-7-yl)-(4-piperazin-1-yl-phenyl)-amine]
[2]
  IC50: 4000 nM
[3]
  IC50: > 5000 nM
[4]
  IC50: 50 nM
[5]
  IC50: 1030 nM
[6]
  IC50: 216 nM

## O=S1(=O)C=Cc2cnc(Nc3ccc(N4CCNCC4)cc3)nc2N1C1CCCC1 [Compound 4, (1-Cyclopentyl-2,2-dioxo-1,2-dihydro-2l^6-thia-1,6,8-triaza-naphthalen-7-yl)-(4-piperazin-1-yl-phenyl)-amine]
[1]
  IC50: 360 nM
[2]
  IC50: 106 nM
[3]
  IC50: 145 nM
[4]
  IC50: 5 nM
[4]; conclusion from Table 2
  selectivity for Cdk4 over cdk1, cdk2, FGF and PDGF: specifically inhibits Cdk4
[5]
  IC50: 179 nM
[6]
  IC50: 1070 nM

## O=S1(=O)CCc2cnc(Nc3ccc(N4CCNCC4)cc3)nc2N1C1CCCC1 [Compound 16, (1-Cyclopentyl-2,2-dioxo-1,2,3,4-tetrahydro-2l^6-thia-1,6,8-triaza-naphthalen-7-yl)-(4-piperazin-1-yl-phenyl)-amine]
[1]
  IC50: 4140 nM
[2]
  IC50: 930 nM
[3]
  IC50: 930 nM
[4]
  IC50: 45 nM
